The IC50 is the point on the concentration scale where inhibition reaches its midpoint. Usually inhibition stands for how much of the control response was suppressed. By Papp is commonly meant the rate of passage across a membrane or cell layer, normalised by area and donor concentration.

The target in one series is hAChE (Homo sapiens, UniProt P22303). Put plainly: hAChE inhibition, Ellman's colorimetric method. The series is classed as biochemical. On the technique in general: DTNB colorimetry detects thiols as they appear.
The target in the next series is hBChE (Homo sapiens, UniProt P06276). The series can be described thus: hBChE inhibition, Ellman's colorimetric method. The series is classed as biochemical. Particulars: IC50 ± SEM hBChE, n = 3.
Series [1] in a line: DPPH radical scavenging assay. Particulars: in methanol.
The next series addresses hBACE-1 (Homo sapiens, UniProt P56817). The series can be described thus: BACE-1 inhibition, FRET-based fluorometric assay. In kind it is biochemical.
The target of the next series is PAS of hAChE (Homo sapiens, UniProt P22303). The series can be described thus: Propidium iodide displacement assay. In kind it is binding. Particulars: for inhibition at 10 µM: read-out: (%) PAS-AChE propidium iodide displacement (% inhibition) at 10 μM; for inhibition at 50 µM: read-out: (%) PAS-AChE propidium iodide displacement (% inhibition) at 50 μM.
The subject of a further series is catalase (CAT). Put plainly: Ex vivo catalase. In kind it is in vivo, Swiss albino mice. Particulars: hippocampal brain homogenate.
The test system of the next series is Swiss albino mice. Put plainly: Scopolamine-induced Y-maze test. In kind it is in vivo. To be noted: scopolamine-induced cognitive dysfunction mice model, p < 0.001.
For another series, the target named is T1, AChE (Mus musculus, UniProt P21836).
T1 sequence (P21836 32-614): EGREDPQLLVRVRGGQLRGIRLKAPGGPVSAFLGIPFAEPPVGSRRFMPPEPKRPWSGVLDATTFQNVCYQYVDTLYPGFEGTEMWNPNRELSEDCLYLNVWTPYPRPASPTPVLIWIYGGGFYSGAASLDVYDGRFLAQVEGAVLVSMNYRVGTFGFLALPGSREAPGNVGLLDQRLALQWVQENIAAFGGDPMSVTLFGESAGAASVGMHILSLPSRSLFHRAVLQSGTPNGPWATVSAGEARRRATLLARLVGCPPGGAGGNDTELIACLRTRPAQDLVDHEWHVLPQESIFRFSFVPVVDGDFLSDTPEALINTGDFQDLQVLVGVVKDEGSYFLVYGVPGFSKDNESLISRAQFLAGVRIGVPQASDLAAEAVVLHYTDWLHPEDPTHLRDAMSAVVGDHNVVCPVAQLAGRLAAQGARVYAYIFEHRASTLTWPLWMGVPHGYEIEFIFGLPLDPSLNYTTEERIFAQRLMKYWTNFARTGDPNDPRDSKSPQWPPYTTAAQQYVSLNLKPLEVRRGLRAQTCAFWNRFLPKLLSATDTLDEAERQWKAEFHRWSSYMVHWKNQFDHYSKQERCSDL
The series can be described thus: Ex vivo AChE level in hippocampal brain homogenate. Further details: species or system Swiss albino mice. Particulars: in comparison with scopolamine-treated group.

A short description of the next series: in vitro. To be noted: pig, PAMPA, pH 7.4. For orientation: PAMPA measures passive passage across an artificial lipid membrane.

Sequence of hBChE (P06276 29-602): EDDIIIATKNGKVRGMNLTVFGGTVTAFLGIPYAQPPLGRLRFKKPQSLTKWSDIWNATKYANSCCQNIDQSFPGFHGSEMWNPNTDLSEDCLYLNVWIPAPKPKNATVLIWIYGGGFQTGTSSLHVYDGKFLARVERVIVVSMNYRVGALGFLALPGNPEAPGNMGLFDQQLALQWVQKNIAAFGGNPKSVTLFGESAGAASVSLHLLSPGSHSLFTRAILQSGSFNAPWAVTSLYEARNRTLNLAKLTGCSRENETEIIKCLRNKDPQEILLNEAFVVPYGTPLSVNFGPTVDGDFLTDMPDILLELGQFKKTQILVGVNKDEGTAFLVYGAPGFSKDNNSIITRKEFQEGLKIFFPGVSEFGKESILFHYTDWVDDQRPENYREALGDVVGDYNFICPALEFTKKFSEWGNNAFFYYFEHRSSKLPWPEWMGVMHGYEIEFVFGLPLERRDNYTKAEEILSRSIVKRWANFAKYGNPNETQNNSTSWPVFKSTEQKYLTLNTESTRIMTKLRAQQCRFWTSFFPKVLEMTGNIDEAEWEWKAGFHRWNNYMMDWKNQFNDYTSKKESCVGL
Sequence of hAChE (P22303 32-617 isoform P22303-2 limits assumed): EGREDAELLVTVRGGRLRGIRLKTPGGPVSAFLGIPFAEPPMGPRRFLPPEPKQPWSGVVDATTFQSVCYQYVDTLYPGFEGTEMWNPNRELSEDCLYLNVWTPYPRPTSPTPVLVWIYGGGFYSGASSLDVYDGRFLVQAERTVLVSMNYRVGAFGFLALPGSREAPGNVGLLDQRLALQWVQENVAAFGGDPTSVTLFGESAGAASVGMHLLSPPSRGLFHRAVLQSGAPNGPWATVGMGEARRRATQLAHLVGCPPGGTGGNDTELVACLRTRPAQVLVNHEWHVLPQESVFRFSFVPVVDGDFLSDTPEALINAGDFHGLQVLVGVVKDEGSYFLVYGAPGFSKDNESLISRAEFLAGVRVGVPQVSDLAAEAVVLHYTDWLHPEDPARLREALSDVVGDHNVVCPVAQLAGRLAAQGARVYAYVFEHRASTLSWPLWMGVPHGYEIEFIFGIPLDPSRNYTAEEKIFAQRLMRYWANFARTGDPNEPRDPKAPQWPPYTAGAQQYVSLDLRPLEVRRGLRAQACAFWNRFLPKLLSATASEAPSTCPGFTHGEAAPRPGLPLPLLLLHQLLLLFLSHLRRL
Sequence of hBACE-1 (P56817 46-501): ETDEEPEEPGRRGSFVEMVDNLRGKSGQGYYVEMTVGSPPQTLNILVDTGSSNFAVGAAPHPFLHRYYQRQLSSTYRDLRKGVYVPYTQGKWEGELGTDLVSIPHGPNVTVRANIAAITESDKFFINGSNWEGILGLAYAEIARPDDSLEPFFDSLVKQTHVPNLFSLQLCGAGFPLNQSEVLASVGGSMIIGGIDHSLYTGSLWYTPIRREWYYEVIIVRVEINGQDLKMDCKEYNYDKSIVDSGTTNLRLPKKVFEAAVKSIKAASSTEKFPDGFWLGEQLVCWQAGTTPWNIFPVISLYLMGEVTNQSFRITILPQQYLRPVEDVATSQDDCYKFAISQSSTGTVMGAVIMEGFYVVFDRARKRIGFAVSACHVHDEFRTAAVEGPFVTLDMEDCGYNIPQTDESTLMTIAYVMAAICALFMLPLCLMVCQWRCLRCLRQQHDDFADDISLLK
Sequence of PAS of hAChE (P22303 32-614): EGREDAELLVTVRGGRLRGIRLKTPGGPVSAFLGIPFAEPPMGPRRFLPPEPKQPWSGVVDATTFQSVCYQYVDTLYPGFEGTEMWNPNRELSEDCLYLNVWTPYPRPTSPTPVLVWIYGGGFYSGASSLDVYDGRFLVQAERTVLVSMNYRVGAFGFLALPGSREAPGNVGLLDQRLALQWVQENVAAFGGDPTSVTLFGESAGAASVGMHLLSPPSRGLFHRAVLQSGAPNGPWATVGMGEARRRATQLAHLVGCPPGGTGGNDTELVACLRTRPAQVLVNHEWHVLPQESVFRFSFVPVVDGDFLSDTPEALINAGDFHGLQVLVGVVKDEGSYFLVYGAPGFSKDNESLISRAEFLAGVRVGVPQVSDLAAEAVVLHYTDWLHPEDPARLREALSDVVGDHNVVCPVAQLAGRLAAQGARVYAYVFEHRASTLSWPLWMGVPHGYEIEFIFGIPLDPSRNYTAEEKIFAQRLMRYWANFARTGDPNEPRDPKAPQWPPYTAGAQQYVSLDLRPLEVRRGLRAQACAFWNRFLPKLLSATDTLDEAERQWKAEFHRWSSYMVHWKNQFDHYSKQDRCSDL

Consider `c1ccc(-c2nnc(CN3CCN(c4ccccc4)CC3)o2)cc1` [5AA, 2-Phenyl-5-((4-phenylpiperazin-1-yl)methyl)-1,3,4-oxadiazole], for which the 50% inhibitory concentration (IC50) was 1830 ± 76 nM at hAChE and more than 10000 nM at hBChE.
For `c1ccc(CN2CCN(Cc3nnc(-c4ccccc4)o3)CC2)cc1` [5AB, 2-((4-Benzylpiperazin-1-yl)methyl)-5-phenyl-1,3,4-oxadiazole], in series [1], the “% RSA of DPPH ± SEM at 25 μM” value was determined as 42.24%. In addition, the concentration for half-maximal inhibition (IC50) is 1790 ± 32 nM at hAChE, more than 10000 nM at hBACE-1 and more than 10000 nM on hBChE. Besides, the inhibition at 10 µM at PAS of hAChE amounted to 18.4 ± 1.07%. Further, the inhibition at 50 µM on PAS of hAChE was determined as 29.5 ± 1.33%.
For the compound `c1ccc(-c2nnc(CN3CCN(C(c4ccccc4)c4ccccc4)CC3)o2)cc1` [5AC, 2-((4-Benzhydrylpiperazin-1-yl)methyl)-5-phenyl-1,3,4-oxadiazole], the IC50 was 3150 ± 20.2 nM at hAChE and 5620 ± 73 nM against hBACE-1.
`c1ccc(-c2nnc(CN3CCN(c4ccccn4)CC3)o2)cc1` [5AD, 2-Phenyl-5-((4-(pyridin-2-yl)piperazin-1-yl)methyl)-1,3,4-oxadiazole]: in the series with catalase (CAT), the “catalase (CAT) level in brain homogenate” value was “increase in catalase”. In [1], the “% RSA of DPPH ± SEM at 25 μM” value worked out at 44.35%. Further, the learning and memory result in the series on Swiss albino mice was “significant improvement in learning and memory”. For the same compound, the 50% inhibitory concentration (IC50) at hAChE was 103 ± 17.2 nM; against hBACE-1, 1340 ± 78 nM; against hBChE it was not below 10000 nM. The “AChE level in hippocampal brain homogenate” value at AChE is given as “decrease in AChE”. In “in vitro”, this compound had an apparent permeability coefficient (Papp) of 6.5 ± 0.072 ×10⁻⁶ cm/s.
For `O=[N+]([O-])c1ccc(N2CCN(Cc3nnc(-c4ccccc4)o3)CC2)cc1` [5AF, 2-((4-(4-Nitrophenyl)piperazin-1-yl)methyl)-5-phenyl-1,3,4-oxadiazole], the IC50 is 1870 ± 44.1 nM against hAChE, 6242 ± 30 nM against hBACE-1 and more than 10000 nM against hBChE.
On to `Cc1ccc(N2CCN(Cc3nnc(-c4ccccc4)o3)CC2)cc1` [5AG, 2-Phenyl-5-((4-(p-tolyl)piperazin-1-yl)methyl)-1,3,4-oxadiazole], for which the “% RSA of DPPH ± SEM at 25 μM” value in series [1] came to 36.30 ± 2.5%. In addition, the IC50 is 2590 ± 16.9 nM on hAChE, 3810 ± 39 nM on hBACE-1 and more than 10000 nM against hBChE.
`COc1ccc(N2CCN(Cc3nnc(-c4ccccc4)o3)CC2)cc1` [5AH, 2-((4-(4-Methoxyphenyl)piperazin-1-yl)methyl)-5-phenyl-1,3,4-oxadiazole]: the “% RSA of DPPH ± SEM at 25 μM” value in series [1] came to 38.78 ± 2.9%. The IC50 against hAChE is 1480 ± 71.9 nM; against hBACE-1, 1685 ± 12 nM; against hBChE it was more than 10000 nM. Also, the inhibition at 10 µM at PAS of hAChE is 19.2 ± 1.81%. Also, at PAS of hAChE, the inhibition at 50 µM stood at 26.7 ± 1.34%. This compound registered a Papp in “in vitro” of 5.8 ± 0.175 ×10⁻⁶ cm/s.
With `Cc1ccc(CN2CCN(Cc3nnc(-c4ccccc4)o3)CC2)cc1` [5AI, 2-((4-(4-Methylbenzyl)piperazin-1-yl)methyl)-5-phenyl-1,3,4-oxadiazole], in [1], the “% RSA of DPPH ± SEM at 25 μM” value was 36.24 ± 2.6%. Moreover, the IC50 at hAChE is 1797 ± 8.1 nM; against hBACE-1, 392 ± 21 nM. Also, on PAS of hAChE, the inhibition at 10 µM came out at 17.7 ± 1.26%.
In the case of `O=C1O[C@H]([C@@H](O)CO)C(O)=C1O` [Ascorbic acid, reference compound], in series [1], the “% RSA of DPPH ± SEM at 25 μM” value turned out to be 59.65 ± 2.3%.

(Values after article PMC11044217 (ACS Omega, 2024).)
